Test results: patent US6734182B2, “Aryl sulfonamides and sulfamide derivatives and uses thereof” (Synaptic Pharmaceutical Corporation, priority 1995, dated 2004)

Tests used:
[1] = biological target: T1, human Y2 receptor (Homo sapiens, UniProt P49146); experiment: Radioligand binding to cloned human Y2 receptor (125I-PYY); conditions: cloned human Y2, stably transfected cells, read-out: Binding Affinity (K1 (nM) vs. 125I-PYY) Human Receptor Y2
T1 construct: expressed in transfected cells
T1 sequence (P49146 1-381): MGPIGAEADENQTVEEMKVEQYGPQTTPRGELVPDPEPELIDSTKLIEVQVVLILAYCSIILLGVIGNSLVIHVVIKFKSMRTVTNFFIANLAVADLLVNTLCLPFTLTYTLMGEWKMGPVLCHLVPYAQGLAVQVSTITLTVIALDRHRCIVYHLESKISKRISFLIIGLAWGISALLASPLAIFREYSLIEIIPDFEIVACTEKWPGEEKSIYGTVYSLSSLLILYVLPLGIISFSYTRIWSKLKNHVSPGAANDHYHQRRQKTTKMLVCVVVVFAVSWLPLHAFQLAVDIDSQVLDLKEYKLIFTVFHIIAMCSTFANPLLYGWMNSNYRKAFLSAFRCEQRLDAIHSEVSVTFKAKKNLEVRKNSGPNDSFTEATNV
Procedure: (§1) Human Y1, human Y2, and rat Y5 receptors were co-transfected with a G-418 resistant gene into the human embryonic kidney 293 cell line by a calcium phosphate transfection method (Cullen, 1987). Stably transfected cells were selected with G-418. Human Y4 and human Y5 receptors were similarly transfected into mouse fibroblast LM(tk−) cells and NIH-3T3 cells.
(§2) Binding of the compounds of the present invention to the human Y1, Y2, Y4 and Y5 receptors was evaluated using stably transfected 293 or LM(tk−) cells as described above. Stably transfected cell lines which may be used for binding assays include, for example, for the human Y1 receptor, 293-hY1-5 (deposited Jun. 4, 1996, under ATCC Accession No. CRL-12121), for the human Y2 receptor, 293-hY2-10 (deposited Jan. 27, 1994, under ATCC Accession No. CRL-11537), for the human Y4 receptor, L-hY4-3 (deposited Jan. 11, 1995, under ATCC Accession No. CRL-11779), and for the human Y5 receptor, L-hY5-7 (deposited Nov. 15, 1995, under ATCC Accession No. CRL-11995).
(§3) Membranes were harvested from COS-7 cells 48 hours after transient transfection. Adherent cells were washed twice in ice-cold phosphate buffered saline (138 mM NaCl, 8.1 mM Na2HPO4, 2.5 mM KCl, […], 0.9 mM CaCl2, 0.5 mM MgCl2, pH 7.4) and lysed by sonication in ice-cold sonication buffer (20 mM Tris-HCl, 5 mM EDTA, pH 7.7). Large particles and debris were cleared by low speed centrifugation (200 x g, 5 min, 4° C.). Membranes were collected from the supernatant fraction by centrifugation (32,000 x g, 18 min, […] ), washed with ice-cold hypotonic buffer, and collected again by centrifugation (32,000 x g, 18 min, 4° C.). […] Protein concentration was measured by the Bradford method (Bradford, 1976) using Bio-Rad Reagent, with bovine serum albumin as a standard. Membranes were held on ice for up to one hour and used fresh, or flash-frozen and stored in liquid nitrogen.
(§4) Membranes were prepared similarly from 293, LM(tk−), and NIH-3T3 cells. To prepare membranes from baculovirus infected cells, 2×10^7 Sf21 cells were grown in 150 mm tissue culture dishes and infected with a high-titer stock of hY5BB3. Cells were incubated for 2-4 days at 27° C., no CO2 be fore harvesting and membrane preparation as described above.

[2] = tested on: food intake in food-deprived rats; experiment: Food intake in food-deprived rats (24 h food deprivation); format: in vivo, rat; design: concentration or dose not given beside the values; conditions: rats after 24 h food deprivation; two hours after administration of test compound
[3] = biological target: T2, human Y4 receptor (Homo sapiens, UniProt P50391); experiment: Radioligand binding to cloned human Y4 receptor (125I-PYY); conditions: cloned human Y4, stably transfected cells, read-out: Binding Affinity (K1 (nM) vs. 125I-PYY) Human Receptor Y4
T2 construct: expressed in transfected cells
Procedure: as §1, §2, §3, §4

[4] = biological target: T3, human 5HT1E receptor (Homo sapiens, UniProt P28566); experiment: Binding to human 5HT1E receptor ([3H]serotonin); conditions: cloned human receptor; read-out: Receptor (pKi) 5HT1E (converted)
T3 construct: expressed in transfected cells
Procedure: (§5) 5HT1Dα, 5HT1Dβ, 5HT1E, 5HT1F Receptors: LM(tk−) clonal cell lines stably transfected with the genes encoding each of these 5HT receptor subtypes were prepared as described above. The cell line for the 5HT1Dα, receptor, designated as Ltk−8-30-84, was deposited on Apr. 17, 1990, and accorded ATCC Accession No. CRL 10421. The cell for the 5HT1Dβ receptor, designated as Ltk−11, was deposited on Apr. 17, 1990, and accorded ATCC Accession No. CRL 10422. The cell line for the 5HT1E receptor, designated 5 HT1E-7, was deposited on Nov. 6, 1991, and accorded ATCC Accession No. CRL 10913. The cell line for the 5HT1F receptor, designated L-5-HT1F, was deposited on Dec. 27, 1991, and accorded ATCC Accession No. ATCC 10957. Membrane preparations comprising these receptors were prepared as described below, and suspended in 50 mM Tris-HCl buffer (pH 7.4 at 37° C.) containing 10 mM MgCl2, 0.2 mM EDTA, 10 μM pargyline, and 0.1% ascorbate. The binding of compounds was determined in competition binding assays by incubation for 30 minutes at 37° C. in the presence of 5 nM [^3H) serotonin. Nonspecific binding was determined in the presence of 10 μM serotonin. The bound radioligand was separated by filtration through GF/B filters using a cell harvester.

[5] = biological target: T4, human 5HT1F receptor (Homo sapiens, UniProt P30939); experiment: Binding to human 5HT1F receptor ([3H]serotonin); conditions: cloned human receptor; read-out: Receptor (pKi) 5HT1F (converted)
T4 construct: expressed in transfected cells
T4 sequence (P30939 1-366): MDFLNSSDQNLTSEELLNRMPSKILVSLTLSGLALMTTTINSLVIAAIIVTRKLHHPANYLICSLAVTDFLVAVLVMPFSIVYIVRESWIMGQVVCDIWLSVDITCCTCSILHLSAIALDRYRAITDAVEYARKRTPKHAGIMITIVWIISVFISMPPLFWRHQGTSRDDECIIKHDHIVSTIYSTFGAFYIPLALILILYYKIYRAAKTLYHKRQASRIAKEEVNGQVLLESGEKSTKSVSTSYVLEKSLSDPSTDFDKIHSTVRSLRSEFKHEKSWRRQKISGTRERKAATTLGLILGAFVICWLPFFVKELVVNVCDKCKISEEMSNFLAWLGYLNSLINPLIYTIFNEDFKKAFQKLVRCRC
Procedure: as §5

[6] = tested on: NPY-induced feeding behavior in satiated rats; experiment: NPY-induced food intake in satiated rats; format: in vivo, rat; conditions: compound 10 mg/kg i.p., then 300 pmole NPY i.c.v., 4 hours after NPY, in g (unit assumed)
Procedure: For these determinations food intake maybe measured in normal satiated rats after intracerebroventricular application (i.c.v.) of NPY in the presence or absence of the test compound. Male Sprague Dawley rats ciba-Geigy AG, Sisseln, Switzerland weighing between 180 g and 220 g are used for all experiments. The rats are individually housed in stainless steel cages and maintained on an 11:13 h light-dark cycle (lights off at 18:00 h) at a controlled temperature of 21-23° C. at all times. Water and food (NAFAG lab chow pellets, NAFAG, Gossau, Switzerland) are available ad libidum.
Rats under pentobarbital anesthesia are stereotaxically implanted with a stainless steel guide cannula targeted at the right lateral ventricle. Stereotaxic coordinates, with the incisor bar set −2.0 mm below interaural line, are: −0.8 mm anterior and +1.3 mm lateral to bregma. The guide cannula is placed on the dura. […]
Food intake may be measured by placing preweighed pellets into the cages at the time of NPY injection. […] The food intake of animals treated with test compound may be calculated as a percentage of the food intake of control animals, i.e., animals treated with vehicle. Alternatively, food intake for a group of animals subjected to the same experimental condition may be expressed as the mean ±S.E.M. Statistical analysis is performed by analysis of variance using the Student-Newman-Keuls test. […]

[7] = biological target: T5, human Y5 receptor (Homo sapiens, UniProt Q15761); experiment: Radioligand binding to cloned human Y5 receptor (125I-PYY); conditions: cloned human Y5, stably transfected cells, read-out: Binding Affinity (K1 (nM) vs. 125I-PYY) Human Receptor Y5
T5 construct: expressed in transfected cells
T5 sequence (Q15761 1-445): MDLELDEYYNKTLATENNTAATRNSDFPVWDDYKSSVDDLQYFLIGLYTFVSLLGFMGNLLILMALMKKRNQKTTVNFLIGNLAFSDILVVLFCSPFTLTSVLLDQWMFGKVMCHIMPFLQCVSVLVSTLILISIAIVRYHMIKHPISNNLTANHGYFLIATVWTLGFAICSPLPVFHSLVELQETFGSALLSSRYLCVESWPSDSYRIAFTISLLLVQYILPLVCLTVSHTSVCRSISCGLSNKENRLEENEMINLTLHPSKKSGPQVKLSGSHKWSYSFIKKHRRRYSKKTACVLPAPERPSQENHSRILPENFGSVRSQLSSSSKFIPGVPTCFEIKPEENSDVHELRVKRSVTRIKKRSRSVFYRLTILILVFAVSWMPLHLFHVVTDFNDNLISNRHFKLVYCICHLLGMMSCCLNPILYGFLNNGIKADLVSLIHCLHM

[8] = biological target: T6, cloned human Y5 receptor (Homo sapiens, UniProt Q15761); experiment: Functional assay: block of NPY-induced inhibition of cAMP accumulation in forskolin-stimulated LM(tk-) cells (radioimmunoassay of cAMP); format: cell-based; conditions: antagonism of NPY-induced inhibition of cAMP accumulation, forskolin-stimulated LM(tk-) cells with human Y5; at least three experiments
T6 construct: expressed in transfected cells
T6 sequence (Q15761 1-445): T5 sequence (Q15761 1-445)

[9] = biological target: T7, human Y1 receptor (Homo sapiens, UniProt P25929); experiment: Radioligand binding to cloned human Y1 receptor (125I-PYY); conditions: cloned human Y1, stably transfected cells, read-out: Binding Affinity (K1 (nM) vs. 125I-PYY) Human Receptor Y1
T7 construct: expressed in transfected cells
T7 sequence (P25929 1-384): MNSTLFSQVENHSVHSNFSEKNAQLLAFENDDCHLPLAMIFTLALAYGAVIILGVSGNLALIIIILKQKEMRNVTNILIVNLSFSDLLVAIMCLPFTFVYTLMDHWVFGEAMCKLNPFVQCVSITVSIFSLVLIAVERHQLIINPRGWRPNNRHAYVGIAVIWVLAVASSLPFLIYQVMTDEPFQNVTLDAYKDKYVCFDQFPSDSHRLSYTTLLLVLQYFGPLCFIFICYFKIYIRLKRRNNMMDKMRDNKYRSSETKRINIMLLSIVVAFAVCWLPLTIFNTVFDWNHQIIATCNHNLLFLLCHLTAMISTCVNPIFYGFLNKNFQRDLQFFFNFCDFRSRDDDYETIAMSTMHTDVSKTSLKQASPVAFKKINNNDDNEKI

T2 sequence (P50391 whole entry): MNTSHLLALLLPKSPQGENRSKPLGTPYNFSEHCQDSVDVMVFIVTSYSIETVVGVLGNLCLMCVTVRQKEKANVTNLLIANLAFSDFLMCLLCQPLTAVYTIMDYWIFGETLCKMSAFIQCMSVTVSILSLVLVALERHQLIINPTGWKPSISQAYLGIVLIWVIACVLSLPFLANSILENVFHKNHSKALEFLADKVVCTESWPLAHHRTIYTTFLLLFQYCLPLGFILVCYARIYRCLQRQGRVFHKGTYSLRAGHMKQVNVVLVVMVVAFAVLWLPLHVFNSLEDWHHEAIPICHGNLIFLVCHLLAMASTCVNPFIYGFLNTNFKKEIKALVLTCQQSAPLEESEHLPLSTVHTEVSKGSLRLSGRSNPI
T3 sequence (P28566 whole entry): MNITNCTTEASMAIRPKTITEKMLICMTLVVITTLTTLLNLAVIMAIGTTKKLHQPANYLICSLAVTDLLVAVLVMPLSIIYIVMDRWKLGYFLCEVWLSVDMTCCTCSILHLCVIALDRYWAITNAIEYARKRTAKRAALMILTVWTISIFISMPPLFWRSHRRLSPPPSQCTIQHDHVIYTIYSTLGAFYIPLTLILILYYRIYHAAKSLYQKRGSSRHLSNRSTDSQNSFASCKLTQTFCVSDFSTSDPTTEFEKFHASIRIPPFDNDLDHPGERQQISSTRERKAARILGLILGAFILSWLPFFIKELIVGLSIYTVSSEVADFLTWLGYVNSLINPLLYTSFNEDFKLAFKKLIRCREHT

| Compound | Ki [1] | Ki [3] | Ki [4] | Ki [5] | Ki [7] | Kb [8] | Ki [9] | Two-hour food intake, percentage of intake compared to control rats, Mean (%) [2] | NPY-induced cumulative food intake (NPY + compound), mean ± S.E.M. [6] |
| --- | --- | --- | --- | --- | --- | --- | --- | --- | --- |
| Cl.O=S(=O)(NCC1CCC(CNCC2CCc3ccccc3C2)CC1)c1ccc2ccccc2c1 (centres unmarked) [Example 31] |  |  |  |  |  |  |  | 27% | 3.8 ± 0.4 |
| Cl.O=S(=O)(NCC1CCC(CNCc2cccc3ccccc23)CC1)c1ccccc1C(F)(F)F (centres unmarked) [Example 37] | 617 nM | 21500 nM |  |  | 26 nM | 0.038 µM | 14500 nM | 58% |  |
| Cl.O=S(=O)(NCC1CCC(CNCc2ccc3ccccc3c2)CC1)c1ccccc1C(F)(F)F (centres unmarked) [Example 38] | 1610 nM | 18500 nM |  |  | 9.8 nM | 0.016 µM | 13000 nM | 80% |  |

Second part, led by results:

| Ki [1] | Ki [3] | Ki [4] | Ki [5] | Ki [7] | Kb [8] | Ki [9] | Compound | Two-hour food intake, percentage of intake compared to control rats, Mean (%) [2] | NPY-induced cumulative food intake (NPY + compound), mean ± S.E.M. [6] |
| --- | --- | --- | --- | --- | --- | --- | --- | --- | --- |
| 851 nM | 13100 nM | ≥ 5.01 µM | ≥ 5.01 µM |  |  |  | O=S(=O)(NC[C@H]1CC[C@H](CNC(CO)Cc2ccc(Cl)cc2)CC1)c1cccc2ccccc12 (relative stereo) [Example 77, Naphthalene-1-sulfonic Acid trans-(4-{[2-(4-Chloro-phenyl)-1-hydroxymethyl-ethylamino]-methyl}-cyclohexylmethyl)-amide] | 32% |  |
| 58200 nM | 19300 nM |  |  |  |  | 23700 nM | Cl.Cl.O=[N+]([O-])c1ccccc1S(=O)(=O)NCC1CCC(CNCc2ccc3ccccc3n2)CC1 (centres unmarked) [Example 44] | 73% |  |
| 5280 nM | 63100 nM |  |  | 28 nM | 0.049 µM | 48700 nM | Cl.Cl.O=[N+]([O-])c1ccccc1S(=O)(=O)NCC1CCC(CNCc2ccnc3ccccc23)CC1 (centres unmarked) [Example 45] | 84% |  |
